According to patent US4005076A, “Hydrazones of 3-formylrifamycin SV” (Gruppo Lepetit S.p.A., priority 1971, dated 1977):
Converted amounts (≈) assume the structure as drawn. Like-named read-outs stand apart in the source and are kept apart here.

Assays:
[1] = target: T1, RNA-dependent DNA polymerase of murine sarcoma virus (Moloney murine leukemia virus, UniProt P03355); assay: inhibition of RNA-dependent DNA polymerase of murine sarcoma virus (3H-dTTP incorporation); assay type: biochemical; conditions: at a concentration of 2-100 μg/ml or less; 60 min
T1 construct: The virion polymerase was purified 20-40 fold; made in house; host or cells: virions from MSV (Moloney) transformed rat 78A1 cells and MSV (Harvey) transformed mouse MEH cells; disrupted virus or polymerase purified 20-40 fold
Experimental: The inhibiting activity of the inventive compounds has been tested on RNA-dependent DNA polymerase of murine sarcoma virus (endogenous) and RNA-dependent DNA polymerase activity of purified enzymes. The inhibition was tested according to the methods described by C. Gurgo et al., Nature, New Biology, 229, 111, 1971. The effect of different concentrations of drugs on polymerase activity was determined by following ^3 H-dTTP (tritiated thymine deoxyriboside triphosphate) incorporation into the insoluble fraction. A typical example of the experimental procedures is the following.
Virus was isolated and purified from murine sarcoma virus (Moloney isolate) transformed rat cells (78Al cells) and murine sarcoma virus (Harvey isolate) transformed mouse cells (MEH cells) as previously described (Green et al., Proc. Nat. Acad. Sci. USA 67, 385-393, 1970, Rokutanda et al., Nature, 227, 1026-1028, 1970). The virion polymerase was purified 20-40 fold by incubation of purified virus with 0.5% NP-40 (nonidet P-40) in 0.1 M NaCl, 0.01 M Tris buffer (pH 7.6), 0.001 M EDTA for 5 minutes at room temperature and zonal centrifugation in 15-30% sucrose gradients in 10 mM sodium phosphate buffer (pH 7.4), 2.5 mM MgCl2, 10 mM dithiothreitol, and 5% glycerol for 24 hours at 38,000 rpm in a Spinco SW41 rotor. The peak fractions of enzyme activity (13-17) of 22 fractions collected, were pooled and stored at -70° C. in 30% glycerol.
Enzyme incubation was performed for 1 hour at 37° C. in 100 μl of reaction mixture containing 40 mM Tris buffer (pH 8.0), 5 mM dithiothreitol, 30 mM NaCl, 2.5 mM MgCl2, 0.1 mM dATP, dGTP, dCTP, and 10 μCi of ^3 H-dTTP (12-18 Ci/mmole) as described by Green et al. in Proc. Nat. Acad. Sci. USA 67, 385-393, 1970. The reaction was terminated by the addition of 150 μl of 1N perchloric acid. Calf thymus DNA (100 μg) was added as carrier; the radioactive DNA product was processed as described in the two papers mentioned above. Endogenous RNA-dependent DNA-polymerase activity was measured after the addition of 0.01% NP-40 to purified virus at the time of assay. The DNA-polymerase activity of purified viral polymerase was measured with 2 μg of poly d (A-T) as template and no NP-40.
Rifamycin derivatives of this invention were dissolved in dimethylsulfoxide (DMSO) at a concentration of 5 mg/ml and stored at 4° C. Inhibition of the endogenous RNA-dependent DNA-polymerase activity was tested by adding 2 μl of derivative appropriately diluted in DMSO or 2 μl of DMSO (control) to the assay mixture prior to addition to disrupted virus which contained 15 to 30 μg of viral protein. Enzyme incubation was performed for 60 minutes at 37° C. Inhibition of purified enzyme was tested by pre-incubation of 2 μl of derivative or DMSO with 30 μl of enzyme (1 to 2 μg of protein) for 10 minutes at 37° C.; then 70 μl of substrate mixture were added and the mixture further incubated and processed as described above.

[2] = system: Staphylococcus aureus strain which is resistant to rifampicin (Staph. aureus Tour); assay: in vitro minimal inhibitory concentration against rifampicin-resistant Staphylococcus aureus strain; assay type: cell-based; conditions: for MIC: Staphylococcus aureus, read-out: Minimal inhibitory concentration
Experimental: In particular, compounds illustrative of the invention at concentrations of about 10 to 20 μg/ml or less inhibit the growth of a Staph. aureus Tour strain resistant to rifampicin.
One of the most important characteristics of the new hydrazones is their activity against rifampicin-resistant Staphylococcus aureus strains. Rifampicin, that is 3-(4-methyl-1-piperazinyl)iminomethylrifamycin SV, disclosed in U.S. Pat. No. 3,342,810, is the most known and widely used rifamycin derivative in therapeutic practice.
The data of the new compounds are compared with those of representative hydrazones disclosed in U.S. Pat. No. 3,342,810.

[3] = target: T2, mouse embryo RNA-polymerase II (ME-RNA-P2) (Mus musculus, UniProt P08775+Q8CFI7); assay: effect on mouse embryo RNA-polymerase II; assay type: biochemical; conditions: for remaining activity at 10 µg: read-out: % Control Activity of ME-RNA-P2 at 10μg; for remaining activity at 100 µg: read-out: % Control Activity of ME-RNA-P2 at 100μg
T2 construct: mouse embryo RNA-polymerase II (ME-RNA-P2); endogenous in cells; host or cells: mouse embryo cells
Text: (§1) Calf-Thymus DNA. Me-RNA-P1 and ME-RNA-P2 : Single Stranded

[4] = system: mouse embryo DNA-polymerase I (ME-DNA-P1); assay: effect on mouse embryo DNA-polymerase I; assay type: biochemical; conditions: activated Calf-Thymus DNA
Text: (§2) Oligo dT.Poly rA. ME-DNA-P1 and ME-DNA-p2 : activated

[5] = target: T3, mouse embryo RNA-polymerase I (ME-RNA-P1) (Mus musculus, UniProt O35134+P70700); assay: effect on mouse embryo RNA-polymerase I; assay type: biochemical; conditions: for remaining activity at 10 µg: read-out: % Control Activity of ME-RNA-P1 at 10μg; for remaining activity at 100 µg: read-out: % Control Activity of ME-RNA-P1 at 100μg
T3 construct: mouse embryo RNA-polymerase I (ME-RNA-P1); endogenous in cells; host or cells: mouse embryo cells
Text: as §1

[6] = system: mouse embryo DNA-polymerase II (ME-DNA-P2); assay: effect on mouse embryo DNA-polymerase II; assay type: biochemical; conditions: activated Calf-Thymus DNA
Text: as §2

[7] = target: T4, sarcoma virus DNA-polymerases (SSV-DNA-P) (Woolly monkey sarcoma virus, UniProt P03359); assay: effect on activity of SSV-polymerase; assay type: biochemical
T4 construct: sarcoma virus DNA-polymerases (SSV-DNA-P)
T4 sequence (P03359 642-1310): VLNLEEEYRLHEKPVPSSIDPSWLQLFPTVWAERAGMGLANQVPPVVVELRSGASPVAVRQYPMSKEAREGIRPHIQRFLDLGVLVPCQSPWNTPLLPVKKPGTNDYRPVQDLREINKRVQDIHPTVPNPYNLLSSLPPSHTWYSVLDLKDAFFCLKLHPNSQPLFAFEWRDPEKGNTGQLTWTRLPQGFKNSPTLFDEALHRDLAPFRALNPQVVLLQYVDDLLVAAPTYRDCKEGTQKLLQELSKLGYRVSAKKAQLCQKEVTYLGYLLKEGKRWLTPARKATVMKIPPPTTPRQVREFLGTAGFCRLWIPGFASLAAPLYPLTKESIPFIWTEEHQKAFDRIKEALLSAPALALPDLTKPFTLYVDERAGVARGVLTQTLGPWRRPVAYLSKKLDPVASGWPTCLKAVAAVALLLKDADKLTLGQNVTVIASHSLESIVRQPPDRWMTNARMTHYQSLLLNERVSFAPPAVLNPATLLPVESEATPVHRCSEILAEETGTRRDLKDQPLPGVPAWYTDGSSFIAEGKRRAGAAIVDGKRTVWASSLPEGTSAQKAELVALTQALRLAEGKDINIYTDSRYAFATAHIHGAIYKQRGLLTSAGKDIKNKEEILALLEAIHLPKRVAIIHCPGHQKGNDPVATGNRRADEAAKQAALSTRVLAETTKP
Text: Templates used in the Enzymatic Assays were the following: SSV-DNA-P: […]

[8] = 10μg, Single Stranded Calf-Thymus DNA
[9] = 100μg, Single Stranded Calf-Thymus DNA
[10] = 10μg, template Oligo dT.Poly rA
[11] = 100μg, template Oligo dT.Poly rA

Row | SMILES | incorporation of H3-dTTP relative to that found in the control tests [1] | MIC [2] [mg/L] | % Control Activity of ME-DNA-P1 at 10μg [4] [%] | % Control Activity of ME-DNA-P1 at 100μg [4] [%] | % Control Activity of ME-DNA-P2 at 10μg [6] [%] | % Control Activity of ME-DNA-P2 at 100μg [6] [%] | remaining activity at 10 µg [3, 8] [%] | remaining activity at 100 µg [3, 9] [%] | remaining activity at 10 µg [5, 8] [%] | remaining activity at 100 µg [5, 9] [%] | % Control Activity of SSV-DNA-P at 5μg ([7]; 5μg, template Oligo dT.Poly rA) [%] | % Control Activity of SSV-DNA-P at 10μg [7, 10] [%] | % Control Activity of SSV-DNA-P at 100μg [7, 11] [%] | further results
1 | COC1C=COC2(C)Oc3c(C)c(O)c4c(O)c(c(C=NN(c5ccccc5)c5ccccc5)c(O)c4c3C2=O)NC(=O)C(C)=CC=CC(C)C(O)C(C)C(O)C(C)C(OC(C)=O)C1C (centres unmarked) [Example 11] | less than 10% | 2 (≈ 2.24 µM) |  |  |  |  |  |  |  |  |  |  |  | 
2 | COC1C=COC2(C)Oc3c(C)c(O)c4c(O)c(c(C=NNC5CCCCCC5)c(O)c4c3C2=O)NC(=O)C(C)=CC=CC(C)C(O)C(C)C(O)C(C)C(OC(C)=O)C1C (centres unmarked) [Example 13] | less than 10% | 10 (≈ 12 µM) |  |  |  |  |  |  |  |  |  |  |  | 
3 | COC1C=COC2(C)Oc3c(C)c(O)c4c(O)c(c(C=NNC5CCCCCCC5)c(O)c4c3C2=O)NC(=O)C(C)=CC=CC(C)C(O)C(C)C(O)C(C)C(OC(C)=O)C1C (centres unmarked) [Example 14] | less than 10% | 5 (≈ 5.88 µM) |  |  |  |  |  |  |  |  |  |  |  | 
4 | COC1C=COC2(C)Oc3c(C)c(O)c4c(O)c(c(C=NN(Cc5ccccc5)c5ccccc5)c(O)c4c3C2=O)NC(=O)C(C)=CC=CC(C)C(O)C(C)C(O)C(C)C(OC(C)=O)C1C (centres unmarked) [Example 15] | less than 10% | 2 (≈ 2.21 µM) |  |  |  |  |  |  |  |  |  |  |  | 
5 | COC1C=COC2(C)Oc3c(C)c(O)c4c(O)c(c(C=NN5CCN(C)CC5)c(O)c4c3C2=O)NC(=O)C(C)=CC=CC(C)C(O)C(C)C(O)C(C)C(OC(C)=O)C1C (centres unmarked) [Rifampicin, 3-(4-methyl-1-piperazinyl)iminomethylrifamycin SV] |  | > 100 | 99 | 56 | 96 | 16 |  |  |  |  |  |  |  | remaining activity at 10 µg [3]: 81%; remaining activity at 100 µg [3]: 99%; Minimal inhibitory concentration ([2]; in vitro, Staphylococcus aureus strain resistant to rifampicin): > 100 mg/L; remaining activity at 10 µg [5]: 77.7%; remaining activity at 100 µg [5]: 86%; % Control Activity of SSV-DNA-P at 5μg [7]: 94%; % Control Activity of SSV-DNA-P at 10μg [7]: 97%; % Control Activity of SSV-DNA-P at 100μg [7]: 96%
6 | COC1C=COC2(C)Oc3c(C)c(O)c4c(O)c(cc(OCC(=O)O)c4c3C2=O)NC(=O)C(C)=CC=CC(C)C(O)C(C)C(O)C(C)C(OC(C)=O)C1C (centres unmarked) [rifamycin B] |  |  | 103 | 81 | 46 | 4 | 102 | 95 | 76 | 85 | 96 | 104 | 75 | 
7 | COC1C=COC2(C)Oc3c(C)c(O)c4c(c3C2=O)C2(C=C(NC(=O)C(C)=CC=CC(C)C(O)C(C)C(O)C(C)C(OC(C)=O)C1C)C4=O)OCC(=O)O2 (centres unmarked) [rifamycin O] |  |  | 92 | 65 | 97 | 5 | 93 | 65 | 77 | 75 | 100 | 98 | 83 | 
8 | CO[C@H]1/C=C/O[C@@]2(C)Oc3c(C)c(O)c4c(O)c(cc(O)c4c3C2=O)NC(=O)/C(C)=C\C=C\[C@H](C)[C@H](O)[C@@H](C)[C@@H](O)[C@@H](C)[C@H](OC(C)=O)[C@@H]1C [rifamycin SV] |  |  | 95 | 105 | 100 | 72 | 87 | 82 | 84 | 106 | 105 | 75 | 61 | remaining activity at 5 µg ([3]; 5μg, Single Stranded Calf-Thymus DNA, read-out: % Control Activity of ME-RNA-P2 at 5μg): 89%; % Control Activity of ME-DNA-P1 at 5μg ([4]; 5μg): 91%; % Control Activity of ME-DNA-P2 at 5μg ([6]; 5μg): 94%
9 | CO[C@H]1/C=C/O[C@@]2(C)Oc3c(C)c(O)c4c(c3C2=O)C(=O)C=C(NC(=O)/C(C)=C\C=C\[C@H](C)[C@H](O)[C@@H](C)[C@@H](O)[C@@H](C)[C@H](OC(C)=O)[C@@H]1C)C4=O [rifamycin S] |  |  | 84 | 86 | 94 | 9 | 78 | 81 | 102 | 90 | 88 | 108 | 100 | 
